Measured values reported in paper PMC11959706, “Allatostatin-C signaling in the crab Carcinus maenas is implicated in the ecdysis program” (The Journal of Experimental Biology, 2025).
“And” between values parts separate entries of the source, which are not always exact repeats. Equal entries are not always repeated. Bridge positions count the residues as written; N and C are the ends. Ends that are not written are not given here.

Tests used:
Y-organs = experiment: Y-organ in vitro bioassay of ecdysteroid synthesis (ecdysteroid RIA); assay type: cell-based, Carcinus maenas; details: 100 nmol l^−1, 24 h incubation; N=3–6
Experimental: To determine the possible activity of AST-C and/or AST-CC on ecdysteroid synthesis, Y-organs (YOs) were dissected from ice-anaesthetized crabs and used in the in vitro bioassay as detailed previously ([Webster, 1986]). Following 24 h incubations, culture medium was aspirated and snap frozen in liquid nitrogen prior to ecdysteroid RIA. YOs were sonicated in PBS, centrifuged (13,000 g for 5 min at room temperature) and assayed for protein concentration using a BCA protein kit (EMD Millipore, Burlington MA, USA). Protein concentrations (BSA standards) were used to normalize ecdysteroid synthesis between YO pairs.
Ecdysteroid RIAs were performed on 20 µl aliquots of culture medium using the following conditions: 100 μl 1:2000 anti-ecdysteroid serum HB-2E (a kind gift from R. D Watson, Alabama University), 100 µl H^−3 Ponasterone A [24, 25, 26, 27-3H (N), 3.5 TBq mmol^−1 (American Radiochemical Company, St Louis, MO, USA)] at 28,000 dpm per tube. 25-Deoxyecdysone (a kind gift from Prof. R. Lafont, Sorbonne University, Paris) was used as a standard (range 2500–19.5 pg per tube), and unknowns and standards were assayed in triplicate. Bound was separated from free using 50 µl per tube immobilized donkey anti-rabbit nitrocellulose suspension (Sac-Cel), as detailed for the AST-C RIA. Pellets were resuspended in 600 µl Hi-Safe 3 (Perkin Elmer) prior to counting. Using this RIA, both ecdysone and 25-deoxyecdysone (the two ecdysteroids synthesized by C. maenas YOs) were equally recognized.

AST-C receptor = details: cited from earlier work; for EC50: Apis mellifera single AST-C receptor, ref Urlacher et al., 2016, read-out: EC50, receptor activation; for ED50, receptor activation: Tribolium castaneum AST-C receptor, ref Audsley et al., 2013
Source text: Thus, the cognate receptor for AST-CCC remains elusive. Despite the well-known similarity in receptor sequences between AST-CR and the somatostatin receptor ([Krienkamp et al., 2002]; [Mayoral et al., 2010]; [Jékely, 2013]; [Verl ...

AST-CRd (TR71151) = experiment: Aequorin luminescence receptor assay, CHO-K1-Aeq-Gα16 cells transiently expressing AST-CRd; assay type: cell-based, Carcinus maenas; details: for Activation of AST-CRd at saturating doses: 10, 1 µmol l^−1 peptide, quadruplicate
Source text: The transcriptome of neural tissue of C. maenas, which has been previously assembled ([Oliphant et al., 2018]), identified four putative AST-C receptor candidates: TR71151a-d ([Oliphant et al., 2018]). These were chemically synthesized with a modified 5′ Kozak sequence (GAATTCGCCACC) and cloned in frame into a pcDNA3.1(+) plasmid vector (Genscript, Piscataway, NJ, USA). Separate aliquots of OneShot TOP10® E. coli cells (Invitrogen, Paisley, UK) were transformed with the plasmids and grown on LB plates containing 100 µg ml^−1 ampicillin overnight at 37°C. Positive clones were cultured overnight in LB broth with 100 µg ml^−1 ampicillin at 37°C and plasmids extracted using a Qiagen Plasmid Midiprep kit according to the manufacturer's instructions. Purified plasmids were re-sequenced (MWG Eurofins, Ebersberg, Germany) and analyzed using Geneious 9.1.8 ([Kearse et al., 2012]).
Chinese hamster ovary (CHO-K1) cells containing stably expressed apoaequorin (Perkin Elmer, Boston, MA) and either Gα16 or Gq subunit (control cells) were cultured in Dulbecco's Modified Eagle Medium (DMEM) F-12 Nutrient Mixture Glutamax (Gibco®) supplemented with 10% fetal bovine serum (Gibco®). Cells were maintained in vented T75 flasks at 37°C in 5% CO2. Cells grown in a monolayer to approximately 60% confluency were transfected with pcDNA 3.1 constructs using FugeneHD® (Promega) according to the manufacturer's recommendations. Transfection medium was prepared by combining 800 µl Opti-MEM® (Gibco) with 10 µg vector and the cells further incubated overnight. Cells were detached from the culture flask by incubating for 10 min in 5 ml 0.2% EDTA in PBS, washed in 10 ml clear DMEM–F-12 containing L-glutamine and 15 mmol l^−1 HEPES, centrifuged (for 5 min at 260 g) and resuspended at a concentration of 5×10^6 cells ml^−1 in 0.2 µm filtered BSA medium (DMEM–F-12 containing L-glutamine, 15 mmol l^−1 HEPES and 0.1% BSA). Coelenterazine h (Invitrogen, Paisley, UK) was added to give a concentration of 5 µmol l^−1, and the cells incubated in the dark at room temperature with gentle rocking. Before the assay, cells were further diluted (10-fold) and incubated for 60 min before use. Dried aliquots of peptides were reconstituted in BSA medium, and 50 µl added in quadruplicate to a white 96-well plate (Optiplate®, Perkin Elmer). Cell suspensions were gently stirred and injected (50 µl per well) using a Mithras LB 940 microplate reader (Berthold Technologies, Bad Wildbad, Germany) and light emission (Ca^2+ response recorded for 30 s). Cells were then lysed by injection of 50 µl per well 0.3% Triton-X in BSA medium, and light emission recorded for a further 10 s to measure total Ca^2+ response. BSA medium was used for blank measurements (six replicates per plate) and transfection with empty vectors was used for negative controls. Data were analyzed using Mikrowin 2010 v5 (Mikrotek Laborsysteme, Overath, Germany) and SigmaPlot v15 (Systat Software, Grafiti, Slough, UK).

[1] = system: semi-isolated heart preparations; experiment: Semi-isolated heart preparation bioassay; design: species or system Carcinus maenas; details: 10^−6 mol l^−1 in saline, 20°C, recorded about 2 min; four preparations
Source text: To determine possible myotropic and/or myoinhbitory activity of AST-C, AST-CC and AST-CCC, inter-molt crabs (∼65 mm carapace width) were ice-anaesthetized and rapidly decerebrated before removing all limbs and the dorsal carapace to expose the heart and pericardial cavity. The preparation was then fitted into a bowl lined with tissue, to provide a stable saline-flooded environment. The heart was connected to a force transducer (MLT0210/A) via a micro-fishing hook (size 28) and fine nylon (0.08 mm) monofilament. Connection to a PC with Chart 4.0 software was via a Bridge Pod (ML301) and Powerlab 4/20 (AD Instruments, Castle Hill, NSW, Australia). Transducer gain was set at maximum sensitivity (200 μV). Heart preparations were initially perfused with Carcinus physiological saline ([Saver et al., 1999]) at room temperature (20°C). Once a stable output was achieved, hearts were then perfused by sequentially adding approximately 2 ml saline containing AST-C, AST-CC and AST-CCC (GenScript Biotech, Piscataway, NJ, USA), and finally adding CCAP as a positive control (all peptides were at a concentration of 10^−6 mol l^−1 in saline). Each peptide addition was followed by extensive washout with saline, recording heart rate and beat amplitude for approximately 2 min after application of each peptide.

heart = details: H. americanus; often seen, the converse in some individuals; ref Dickinson et al., 2018; cited from earlier work
AST-CR(d) = experiment: Aequorin luminescence receptor assay, AST-CR(d) construct in control cells expressing a Gq subunit; assay type: cell-based, Carcinus maenas; details: CHO-K1-Aeq control cells expressing a Gq subunit, transfected with AST-CR(d) construct
Experimental: Chinese hamster ovary (CHO-K1) cells containing stably expressed apoaequorin (Perkin Elmer, Boston, MA) and either Gα16 or Gq subunit (control cells) were cultured in Dulbecco's Modified Eagle Medium (DMEM) F-12 Nutrient Mixture Glutamax (Gibco®) supplemented with 10% fetal bovine serum (Gibco®). Cells were maintained in vented T75 flasks at 37°C in 5% CO2. Cells grown in a monolayer to approximately 60% confluency were transfected with pcDNA 3.1 constructs using FugeneHD® (Promega) according to the manufacturer's recommendations. Transfection medium was prepared by combining 800 µl Opti-MEM® (Gibco) with 10 µg vector and the cells further incubated overnight. […] Cell suspensions were gently stirred and injected (50 µl per well) using a Mithras LB 940 microplate reader (Berthold Technologies, Bad Wildbad, Germany) and light emission (Ca^2+ response recorded for 30 s). Cells were then lysed by injection of 50 µl per well 0.3% Triton-X in BSA medium, and light emission recorded for a further 10 s to measure total Ca^2+ response. […] Data were analyzed using Mikrowin 2010 v5 (Mikrotek Laborsysteme, Overath, Germany) and SigmaPlot v15 (Systat Software, Grafiti, Slough, UK).

## GNGDGRLYWRCYFNAVSCF (disulfide 11-18 (inferred)) [AST-CC, C. maenas AST-C family neuropeptide; synthetic (GenScript)]
Y-organs
  Effect on ecdysteroid synthesis by Y-organs: entirely without effect
AST-C receptor
  EC50: 15.4 nM
  ED50, receptor activation: 105.7 nM
AST-CRd (TR71151)
  Activation of AST-CRd at saturating doses: equally active
AST-CRd (TR71151); CHO-K1-Aeq-Gα16 cells transiently expressing AST-CRd, assayed in quadruplicate, two independent experiments, approximate values
  ED50, luminescence response: 2 nM and 2 to 6 nM
[1]
  Effect on heartbeat amplitude: entirely unaffected
  Effect on heartbeat frequency (heart rate): entirely unaffected
heart
  Effect on heart rate: decrease in amplitude and frequency of heart rate
AST-CR(d)
  Luminescent response in control cells: no luminescent response

## pQIRYHQCYFNPISCF (disulfide) [AST-C, allatostatin-C, C. maenas AST-C family neuropeptide with C-terminal PISCF motif; synthetic (GenScript)]
Y-organs
  Effect on ecdysteroid synthesis by Y-organs: entirely without effect
AST-C receptor
  EC50: 14.6 nM
  ED50, receptor activation: 25 nM
AST-CRd (TR71151)
  Activation of AST-CRd at saturating doses: equally active
[1]
  Effect on heartbeat amplitude: entirely unaffected
  Effect on heartbeat frequency (heart rate): entirely unaffected
heart
  Effect on heart rate: decrease in amplitude and frequency of heart rate
AST-CR(d)
  Luminescent response in control cells: no luminescent response
